The supplement of paper PMC10307832

Assays:
Experiment in all cases: relative viability (nuclei count vs DMSO), 5 days (fraction); higher = more cells survive
Tanzisertib + Trametinib = compound: O[C@H]1CC[C@H](Nc2ncc3nc(Nc4c(F)cc(F)cc4F)n([C@H]4CCOC4)c3n2)CC1 [Tanzisertib] + CC(=O)Nc1cccc(-n2c(=O)n(C3CC3)c(=O)c3c(Nc4ccc(I)cc4F)n(C)c(=O)c(C)c32)c1 [Trametinib] (partner 0.02 µM)
In short: (§1)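 Relative viability divides the nuclei count in treated wells by that in vehicle wells. Lung cancer cell lines were seeded in 1536-well plates, dosed by pin tool the next day, and fixed and stained after 5 days in one step with final 0.05% Triton X-100, 1% formaldehyde and 1 ug/ml Hoechst. Dosing was a single drug or a fixed anchor-drug dose plus five library-drug doses (not always all listed) in √10 steps, and values are medians of duplicate plates imaged at 4×.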

[1] = compound: C[C@@H](N)c1ccc(C(=O)Nc2ccnc3[nH]ccc23)cc1 + Cc1nc(Nc2ncc(C(=O)Nc3c(C)cccc3Cl)s2)cc(N2CCN(CCO)CC2)n1 [Dasatinib] (partner 0.075 µM)
In short: as §1

[2] = compound: C1CNCCC1C2=CC(=NN2)C3=CC=NC=C3 + Nc1ncn([C@H]2C[C@H](O)[C@@H](CO)O2)c(=O)n1 [Decitabine] (partner 2 µM)
In short: as §1

Tanzisertib + Bortezomib = compound: O[C@H]1CC[C@H](Nc2ncc3nc(Nc4c(F)cc(F)cc4F)n([C@H]4CCOC4)c3n2)CC1 [Tanzisertib] + CC(C)C[C@H](NC(=O)[C@H](Cc1ccccc1)NC(=O)c1cnccn1)B(O)O [Bortezomib] (partner 0.002 µM)
In short: as §1

Cell Line | relative viability (Tanzisertib + Trametinib; first compound 0.08 µM) | relative viability (Tanzisertib + Trametinib; first compound 0.253 µM) | relative viability (Tanzisertib + Trametinib; first compound 0.8 µM) | relative viability (Tanzisertib + Trametinib; first compound 2.53 µM) | relative viability (Tanzisertib + Trametinib; first compound 8 µM) | relative viability ([1]; first compound 0.04 µM) | relative viability ([1]; first compound 0.1265 µM) | relative viability ([1]; first compound 0.4 µM) | relative viability ([1]; first compound 4 µM) | relative viability ([2]; first compound 0.08 µM) | relative viability ([2]; first compound 0.8 µM) | relative viability ([2]; first compound 2.53 µM) | relative viability ([2]; first compound 8 µM) | relative viability (Tanzisertib + Bortezomib; first compound 0.08 µM) | relative viability (Tanzisertib + Bortezomib; first compound 0.253 µM) | relative viability (Tanzisertib + Bortezomib; first compound 0.8 µM) | relative viability (Tanzisertib + Bortezomib; first compound 2.53 µM) | relative viability (Tanzisertib + Bortezomib; first compound 8 µM) | relative viability ([1]; first compound 1.265 µM)
LC-2-ad | 1 | 0.915 | 0.973 | 0.932 | 0.877 | 0.717 | 0.639 | 0.814 | 0.389 | 0.682 | 0.791 | 0.868 | 0.789 | 1.05 | 1.08 | 1.05 | 1.09 | 1.01 | 
NCI-H647 | 0.702 | 0.47 | 0.524 | 0.528 | 0.418 | 0.15 | 0.172 | 0.157 | 0.133 | 0.296 | 0.378 | 0.338 | 0.392 | 1.03 | 1.01 | 1 | 1.14 | 1.02 | 0.166
NCI-H1755 | 0.791 | 0.831 | 0.779 | 0.697 | 0.719 | 0.292 | 0.449 | 0.457 | 0.223 | 0.712 | 0.717 | 0.692 | 0.641 | 1.03 | 0.995 | 0.986 | 0.957 | 0.942 | 0.316
EPLC-272H | 0.318 | 0.279 | 0.322 | 0.317 | 0.297 | 0.43 | 0.278 | 0.32 | 0.182 | 0.372 | 0.385 | 0.389 | 0.365 | 1.04 | 0.949 | 0.876 | 0.943 | 1.04 | 0.211
NCI-H1437 | 0.588 | 0.481 | 0.512 | 0.558 | 0.43 | 0.451 | 0.292 | 0.372 | 0.393 | 0.574 | 0.573 | 0.624 | 0.602 | 0.663 | 0.648 | 0.479 | 0.531 | 0.393 | 0.471
EKVX | 0.487 | 0.301 | 0.368 | 0.347 | 0.295 | 0.624 | 0.533 | 0.561 | 0.455 | 0.291 |  | 0.318 | 0.323 | 1.1 | 0.996 | 1.02 | 0.965 | 0.683 | 0.248
NCI-H1651 | 0.851 | 0.83 | 0.775 | 0.832 | 0.85 | 0.389 | 0.429 | 0.414 | 0.41 | 0.586 | 0.566 | 0.686 | 0.501 | 0.897 | 0.917 | 0.925 | 0.875 | 0.853 | 0.288
HCC-15 | 0.406 | 0.364 | 0.414 | 0.36 | 0.342 | 0.633 | 0.574 | 0.603 | 0.442 | 0.652 | 0.793 | 0.587 | 0.621 | 1.25 | 1.08 | 1.09 | 1.01 | 1 | 
